Source: patent US10253081B2, “Glucagon analogues” (Zealand Pharma A/S, priority 2012, dated 2019)
pEC50: −log10 of the molar value. *1 amine or outer side, *2 acyl side, *3 side chain or, on linkers, in order; H or OH if unused. Where a SMILES comes first, the peptide text is derived from it. Side-chain parts run from the residue outwards. [ ]: non-standard residue; d: D form. The star is where a group is joined. γGlu = O=C(O)[C@H](CCC(=O)[*:2])N[*:1]; Palmitoyl = CCCCCCCCCCCCCCCC(=O)*; Aib = CC(C)(N)C(=O)O

Assays:
[1] = target: T1, endogenous GLP-1 receptors (Mus musculus, UniProt O35659); experiment: Agonistic activity on endogenous GLP-1 receptor (cAMP, murine insulinoma cell line); assay type: cell-based; conditions: intracellular cAMP, 15 minutes at 26° C.; read-out: EC50 GLP-1R (murine insulinoma cells)
T1 construct: Agonistic activity of the test compounds on endogenous GLP-1 receptors; endogenous in cells
T1 sequence (O35659 22-463): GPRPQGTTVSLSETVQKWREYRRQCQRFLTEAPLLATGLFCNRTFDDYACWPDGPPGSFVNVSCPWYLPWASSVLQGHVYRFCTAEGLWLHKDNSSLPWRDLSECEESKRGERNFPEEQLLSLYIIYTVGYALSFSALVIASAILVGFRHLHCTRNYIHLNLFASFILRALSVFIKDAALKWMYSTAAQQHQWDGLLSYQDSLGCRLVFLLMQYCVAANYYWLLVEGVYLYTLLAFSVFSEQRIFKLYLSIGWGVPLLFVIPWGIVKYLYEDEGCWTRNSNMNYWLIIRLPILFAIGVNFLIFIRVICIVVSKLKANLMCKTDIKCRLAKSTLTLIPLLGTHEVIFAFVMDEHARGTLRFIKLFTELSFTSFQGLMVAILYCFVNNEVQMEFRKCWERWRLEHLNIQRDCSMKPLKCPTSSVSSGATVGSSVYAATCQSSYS
Summary of the method: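 Murine insulinoma cells were exposed 15 min at 26° C in KRBH with 0.1% DMSO to compound or GLP-1 ([…]), then cAMP was measured by AlphaScreen against a standard curve, in quadruplicate. pEC50 came from curve fits; % CTL was normalised to the maximal GLP-1 cAMP response.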

[2] = target: T2, endogenous glucagon receptor (Rattus norvegicus, UniProt P30082); experiment: Agonistic activity on endogenous glucagon receptor (glycogen synthesis rate in primary rat hepatocytes); assay type: cell-based; conditions: inhibition of glycogen synthesis rate, 3 hours, read-out: EC50 GLP-1R Rat hepat.
T2 construct: Agonistic activity of the test compounds on endogenous glucagon receptor; endogenous in cells; host or cells: primary rat hepatocytes
Summary of the method: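 Primary rat hepatocytes (40,000 cells/well, cultured 24 h) incubated 3 h with compound in KRBH buffer with 0.1% BSA, 22.5 mM glucose and D-[U14C]glucose. 14C incorporated into precipitated glycogen counted, background-subtracted and expressed as % of 0.1% DMSO vehicle (100% CTL). pEC50 from cpm versus log concentration; agonism lowers glycogen synthesis.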

[3] = Oral glucose tolerance test (OGTT); assay type: in vivo, C57BL/6J mice; conditions: blood glucose AUC 0-120 min, 10 nmol/kg s.c. 4 h before oral glucose 2 g/kg
Description: Male C57BL/6J mice were fasted for 10 h before they received an oral glucose bolus of 2 g/kg body weight. Peptides were dissolved in saline buffered with 25 mM phosphate and administered at a dose of 10 nmol/kg body weight by subcutaneous injection 4 h before the glucose bolus. Control animals received a vehicle injection only. Group size was 7 animals per group. A pre-dose and a pre-glucose (0 min) blood sample were obtained by tail bleeding and blood glucose was measured with a glucometer. Additional samples of tail blood for measuring blood glucose were obtained 15 min, 30 min, 60 min, 90 min and 120 min after the glucose challenge. […] Calculation of AUC was done by the trapezoidal rule without baseline correction. The data are presented as mean±S.E.M. Statistical comparisons were conducted by one-way ANOVA followed by Tukey's post test. Vehicle alone was used as a control.

T2 sequence (P30082 27-485): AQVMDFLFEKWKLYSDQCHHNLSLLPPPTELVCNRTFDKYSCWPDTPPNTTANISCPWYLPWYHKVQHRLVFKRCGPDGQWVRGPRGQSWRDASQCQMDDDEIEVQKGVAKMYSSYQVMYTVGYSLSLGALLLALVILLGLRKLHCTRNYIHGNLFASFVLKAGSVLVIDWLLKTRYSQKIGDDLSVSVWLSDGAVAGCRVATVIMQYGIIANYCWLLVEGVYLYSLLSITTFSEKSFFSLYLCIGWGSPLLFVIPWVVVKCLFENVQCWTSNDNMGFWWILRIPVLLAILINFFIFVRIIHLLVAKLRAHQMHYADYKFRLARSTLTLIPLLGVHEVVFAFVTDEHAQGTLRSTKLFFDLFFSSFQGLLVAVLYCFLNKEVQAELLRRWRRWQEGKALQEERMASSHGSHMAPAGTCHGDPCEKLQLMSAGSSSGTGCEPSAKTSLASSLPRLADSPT

SMILES | pEC50 [1] | pEC50 [2] | AUC (% Ctrl) [3]
CCCCCCCCCCCCCCCC(=O)N[C@@H](CCC(=O)NCCCC[C@H](NC(=O)[C@H](CO)NC(=O)[C@H](CC(=O)O)NC(=O)[C@H](CC(C)C)NC(=O)[C@H](Cc1ccc(O)cc1)NC(=O)[C@H](CCCCN)NC(=O)[C@H](CO)NC(=O)[C@H](Cc1ccc(O)cc1)NC(=O)[C@H](CC(=O)O)NC(=O)[C@H](CO)NC(=O)[C@@H](NC(=O)[C@H](Cc1ccccc1)NC(=O)[C@@H](NC(=O)CNC(=O)[C@H](CCC(N)=O)NC(=O)[C@H](CO)NC(=O)[C@@H](N)Cc1c[nH]cn1)[C@@H](C)O)[C@@H](C)O)C(=O)N[C@@H](C)C(=O)N[C@@H](C)C(=O)N[C@@H](CCC(=O)O)C(=O)N[C@@H](CC(=O)O)C(=O)N[C@@H](Cc1ccccc1)C(=O)N[C@H](C(=O)N[C@@H](CCC(=O)O)C(=O)N[C@@H](Cc1c[nH]c2ccccc12)C(=O)N[C@@H](CC(C)C)C(=O)N[C@@H](CC(C)C)C(=O)N[C@@H](CCCNC(=N)N)C(=O)N[C@@H](C)C(N)=O)C(C)C)C(=O)O [Compound 7, H-HSQGTFTSDYSKYLDS-K(Hexadecanoyl-isoGlu)-AAEDFVEWLLRA-NH2] (H-HSQGTFTSDYSKYLDSK([γGlu-Palmitoyl])AAEDFVEWLLRA-NH2) | 9.08 | 8.72 | 57 % Ctrl
CCCCCCCCCCCCCCCC(=O)N[C@@H](CCC(=O)NCCCC[C@H](NC(=O)[C@H](CO)NC(=O)[C@H](CC(=O)O)NC(=O)[C@H](CC(C)C)NC(=O)[C@H](Cc1ccc(O)cc1)NC(=O)[C@H](CCCCN)NC(=O)[C@H](CO)NC(=O)[C@H](Cc1ccc(O)cc1)NC(=O)[C@H](CC(=O)O)NC(=O)[C@H](CO)NC(=O)[C@@H](NC(=O)[C@H](Cc1ccccc1)NC(=O)[C@@H](NC(=O)CNC(=O)[C@H](CCC(N)=O)NC(=O)[C@H](CO)NC(=O)[C@@H](N)Cc1c[nH]cn1)[C@@H](C)O)[C@@H](C)O)C(=O)N[C@@H](C)C(=O)N[C@@H](C)C(=O)N[C@@H](Cc1c[nH]cn1)C(=O)N[C@@H](CC(=O)O)C(=O)N[C@@H](Cc1ccccc1)C(=O)N[C@H](C(=O)N[C@@H](CCC(=O)O)C(=O)N[C@@H](Cc1c[nH]c2ccccc12)C(=O)N[C@@H](CC(C)C)C(=O)N[C@@H](CC(C)C)C(=O)N[C@@H](CCCNC(=N)N)C(=O)N[C@@H](C)C(=O)O)C(C)C)C(=O)O [Compound 3, H-HSQGTFTSDYSKYLDS-K(Hexadecanoyl-isoGlu)-AAHDFVEWLLRA-OH] (H-HSQGTFTSDYSKYLDSK([γGlu-Palmitoyl])AAHDFVEWLLRA-OH) | 8.97 | 9.80 | 70 % Ctrl
CCCCCCCCCCCCCCCC(=O)N[C@@H](CCC(=O)NCCCC[C@H](NC(=O)[C@H](CO)NC(=O)[C@H](CC(=O)O)NC(=O)[C@H](CC(C)C)NC(=O)[C@H](Cc1ccc(O)cc1)NC(=O)[C@H](CCCCN)NC(=O)[C@H](CO)NC(=O)[C@H](Cc1ccc(O)cc1)NC(=O)[C@H](CC(=O)O)NC(=O)[C@H](CO)NC(=O)[C@@H](NC(=O)[C@H](Cc1ccccc1)NC(=O)[C@@H](NC(=O)CNC(=O)[C@H](CCC(N)=O)NC(=O)[C@H](CO)NC(=O)[C@@H](N)Cc1c[nH]cn1)[C@@H](C)O)[C@@H](C)O)C(=O)N[C@@H](C)C(=O)N[C@@H](C)C(=O)N[C@@H](Cc1c[nH]cn1)C(=O)N[C@@H](CC(=O)O)C(=O)N[C@@H](Cc1ccccc1)C(=O)N[C@H](C(=O)N[C@@H](CCC(=O)O)C(=O)N[C@@H](Cc1c[nH]c2ccccc12)C(=O)N[C@@H](CC(C)C)C(=O)N[C@@H](CC(C)C)C(=O)N[C@@H](CO)C(=O)N[C@@H](C)C(=O)O)C(C)C)C(=O)O [Compound 2, H-HSQGTFTSDYSKYLDS-K(Hexadecanoyl-isoGlu)-AAHDFVEWLLSA-OH] (H-HSQGTFTSDYSKYLDSK([γGlu-Palmitoyl])AAHDFVEWLLSA-OH) | 8.85 | 9.37 | 66 % Ctrl

Continued, in another order:

pEC50 [1] | pEC50 [2] | SMILES | AUC (% Ctrl) [3]
9.14 | 10.00 | CCCCCCCCCCCCCCCC(=O)N[C@@H](CCC(=O)NCCCC[C@H](NC(=O)[C@H](CCC(=O)O)NC(=O)[C@H](CC(=O)O)NC(=O)[C@H](CC(C)C)NC(=O)[C@H](Cc1ccc(O)cc1)NC(=O)[C@H](CCCCN)NC(=O)[C@H](CO)NC(=O)[C@H](Cc1ccc(O)cc1)NC(=O)[C@H](CC(=O)O)NC(=O)[C@H](CO)NC(=O)[C@@H](NC(=O)[C@H](Cc1ccccc1)NC(=O)[C@@H](NC(=O)CNC(=O)[C@H](CCC(N)=O)NC(=O)C(C)(C)NC(=O)[C@@H](N)Cc1c[nH]cn1)[C@@H](C)O)[C@@H](C)O)C(=O)N[C@@H](CCCNC(=N)N)C(=O)N[C@@H](C)C(=O)N[C@@H](CCCCN)C(=O)N[C@@H](CC(=O)O)C(=O)N[C@@H](Cc1ccccc1)C(=O)N[C@H](C(=O)N[C@@H](CCC(=O)O)C(=O)N[C@@H](Cc1c[nH]c2ccccc12)C(=O)N[C@@H](CC(C)C)C(=O)N[C@@H](CC(C)C)C(=O)N[C@@H](CO)C(=O)N[C@@H](C)C(=O)O)[C@@H](C)CC)C(=O)O [Compound 14, H-H-Aib-QGTFTSDYSKYLDE-K(Hexadecanoyl-isoGlu)-RAKDFIEWLLSA-OH] (H-H[Aib]QGTFTSDYSKYLDEK([γGlu-Palmitoyl])RAKDFIEWLLSA-OH) | 59 % Ctrl
8.99 | 9.43 | CCCCCCCCCCCCCCCC(=O)N[C@@H](CCC(=O)NCCCC[C@H](NC(=O)[C@H](CO)NC(=O)[C@H](CC(=O)O)NC(=O)[C@H](CC(C)C)NC(=O)[C@H](Cc1ccc(O)cc1)NC(=O)[C@H](CCCCN)NC(=O)[C@H](CO)NC(=O)[C@H](Cc1ccc(O)cc1)NC(=O)[C@H](CC(=O)O)NC(=O)[C@H](CO)NC(=O)[C@@H](NC(=O)[C@H](Cc1ccccc1)NC(=O)[C@@H](NC(=O)CNC(=O)[C@H](CCC(N)=O)NC(=O)[C@H](CO)NC(=O)[C@@H](N)Cc1c[nH]cn1)[C@@H](C)O)[C@@H](C)O)C(=O)N[C@@H](C)C(=O)N[C@@H](C)C(=O)N[C@@H](Cc1c[nH]cn1)C(=O)N[C@@H](CC(=O)O)C(=O)N[C@@H](Cc1ccccc1)C(=O)N[C@H](C(=O)N[C@@H](CCC(=O)O)C(=O)N[C@@H](Cc1c[nH]c2ccccc12)C(=O)N[C@@H](CC(C)C)C(=O)N[C@@H](CC(C)C)C(=O)N[C@@H](CCCNC(=N)N)C(=O)O)C(C)C)C(=O)O [Compound 9, H-HSQGTFTSDYSKYLDS-K(Hexadecanoyl-isoGlu)-AAHDFVEWLLR-OH] (H-HSQGTFTSDYSKYLDSK([γGlu-Palmitoyl])AAHDFVEWLLR-OH) | 57 % Ctrl
9.48 | 10.40 | CCCCCCCCCCCCCCCC(=O)N[C@@H](CCC(=O)NCCCC[C@H](NC(=O)[C@H](CCC(=O)O)NC(=O)[C@H](CC(=O)O)NC(=O)[C@H](CC(C)C)NC(=O)[C@H](Cc1ccc(O)cc1)NC(=O)[C@H](CCCCN)NC(=O)[C@H](CO)NC(=O)[C@H](Cc1ccc(O)cc1)NC(=O)[C@H](CC(=O)O)NC(=O)[C@H](CO)NC(=O)[C@@H](NC(=O)[C@H](Cc1ccccc1)NC(=O)[C@@H](NC(=O)CNC(=O)[C@H](CCC(N)=O)NC(=O)[C@H](CO)NC(=O)[C@@H](N)Cc1c[nH]cn1)[C@@H](C)O)[C@@H](C)O)C(=O)N[C@@H](C)C(=O)N[C@@H](C)C(=O)N[C@@H](Cc1c[nH]cn1)C(=O)N[C@@H](CCC(=O)O)C(=O)N[C@@H](Cc1ccccc1)C(=O)N[C@H](C(=O)N[C@@H](CCC(=O)O)C(=O)N[C@@H](Cc1c[nH]c2ccccc12)C(=O)N[C@@H](CC(C)C)C(=O)N[C@@H](CCC(=O)O)C(=O)N[C@@H](CO)C(=O)N[C@@H](C)C(N)=O)C(C)C)C(=O)O [Compound 10, H-HSQGTFTSDYSKYLDE-K(Hexadecanoyl-isoGlu)-AAHEFVEWLESA-NH2] (H-HSQGTFTSDYSKYLDEK([γGlu-Palmitoyl])AAHEFVEWLESA-NH2) | 46 % Ctrl
